# Literature values in paper PMC11949389 (Polish Journal of Microbiology, 2025).
# Where two headings read alike, the source gives them in different places.
# Tests used:
# [1] = system: Vancomycin-sensitive Enterococcus (VSE)
# Staphylococcus sp. = settings: ref Caballero Gómez et al. 2022
# [2] = system: Methicillin-resistant Staphylococcus aureus; settings: Methicillin-resistant Staphylococcus aureus; ref Owen et al. 2019
# Candida auris [3] = system: Candida auris
# [4] = system: Staphylococcus pseudintermedius
# [5] = system: Staphylococcus aureus Pseudomonas fluorescens; settings: ref Wang et al. 2020b
# Acinetobacter baumannii = settings: combined with ciprofloxacin, ref Aleksic Sabo et al. (2021)
# [6] = system: Vancomycin-resistant Enterococcus (VRE); settings: Vancomycin-resistant Enterococcus (VRE); ref Owen et al. 2019
# [7] = system: Pseudomonas aeruginosa Enterococcus faecalis; settings: ref Mechmechani et al. 2022
# Malassezia pachydermatis = settings: ref Schlemmer et al. 2019, Sim et al. 2019
# Salmonella Typhimurium = settings: ref Giovagnoni et al. (2020)
# Candida auris [8] = system: Candida auris; remark: listed apart in the source
# [9] = Candida auris, ref Shaban et al. 2020
structure (smiles),measurement,setting,value
Cc1ccc(C(C)C)cc1O [Carvacrol],MIC/Sensitivity,"[1]; Vancomycin-sensitive Enterococcus (VSE), ref Owen et al. 2019",593.37 µg/mL
same,reduction in vancomycin’s MIC,"[1]; binary combinations with vancomycin, VSE, ref Owen et al. (2020)",four to eight-fold reduction
same,MIC/Sensitivity,Staphylococcus sp.,200 to 400 µg/mL
same,MIC/Sensitivity,[2],148717.8 µg/mL
same,median MIC,"Candida auris [3]; C. auris, ref Shaban et al. (2020)",125 µg/mL
same,MIC,Candida auris [3]; [9],125 µg/mL
same,MIC/Sensitivity,Candida auris [3]; [9],125 µg/mL
same,MIC90,"[4]; S. pseudintermedius, ref Sim et al. (2019)",146 µg/mL
same,MIC/Sensitivity,"[4]; Staphylococcus pseudintermedius, ref Sim et al. 2019",146 to 292 µg/mL
same,Mechanisms of action,[5],• Targeted extracellular polymeric substances • Disruption of biofilm structures
same,FICI,Acinetobacter baumannii,0.25–0.32
same,MIC/Sensitivity,[6],593369 µg/mL
same,Mechanisms of action,[7],• Cell membrane destruction • Leakage of the intercellular pool • Anti-biofilm properties • Increased extracellular K+ ions concentrations
same,MIC/Sensitivity,Malassezia pachydermatis,10 to 585 µg/mL
same,MIC,Salmonella Typhimurium,1870 µM
same,Mechanisms of action,Candida auris [8]; ref Ismail et al. 2022,"• Induced oxidative stress • Increased CAT, SOD and GPx enzyme activity • Decreased GR and GST enzyme activity • Caused membrane disintegration"
same,Mechanisms of action,Candida auris [8]; ref Shaban et al. 2020,• Reduced proteinase production and host cell adherence
